Test results taken from patent EP0587374A2, “Sulfated sterol glycosides and their use against viral infections” (VIROSTAT (NA) NV, priority 1992, dated 1994).
Read-outs that look alike come from different tables or passages of the source.

Assays:
[1] = system: Peripheral blood lymphocytes; test: In vitro cytotoxicity, Trypan Blue exclusion after 3 days of culture; settings: 3 days, means of 4 counts
Protocol: Peripheral blood lymphocytes were prepared from normal blood. Cells were cultured for 3 days in complete medium [(RPMI, a commercially available so-called standard salt solution) + 10 % foetal calf serum (FCS) + […]] in the presence/absence of phytohemagglutinin (PHA). Duplicate wells were set up. Incubation was at 37°C and 5 % CO₂.
On the third day, cell viabilities were determined using the Trypan Blue exclusion test.
Those products which were water soluble, were made up at 8 mg/mℓ stocks in sterile distilled water and diluted 1:10 in RPMI medium and again diluted 1:10 directly in the wells containing the cells in complete medium. The final concentrations were thus 80 µg/mℓ. For the lower dilutions, the 8 mg/mℓ stock was diluted 1:2 or 1:4 or 1:8 in water before being diluted in the RPMI medium.
For those products which were DMSO-soluble, the stocks were made'up at 8 mg/mℓ in 100 % DMSO. This stock was diluted 1:10 in 100 % FCS and diluted 1:10 directly in the wells containing the cells in RPMI medium only. The final concentrations were thus 10 % FCS and 1 % DMSO. For the lower dilutions, the 8 mg/mℓ stock was diluted 1:2 or 1:4 or 1:8 with DMSO before the FCS dilution step.
This stock was diluted in water to yield a working stock of 2 mg/mℓ. The 2 mg/ml stock was diluted 1:20 or 1:10 or 1:5 or 1:2.5 in water and again 1:10 in the wells to give the 10, 20, 40 or 80 µg/mℓ final concentrations respectively.

[2] = test concentration 10 µg/mℓ, duration 6 days
[3] = test concentration 25 µg/mℓ, duration 6 days
[4] = test concentration 50 µg/mℓ, duration 6 days

How did the “inhibition of P24 protein production” value (HIV-1; concentration 10 ng/mℓ, test of Table 3) turn out when `Cc1cn([C@H]2C[C@H](N=[N+]=[N-])[C@@H](CO)O2)c(=O)[nH]c1=O` [AZT, reference compound] was run?
Its value is 100%.

Which results are given for `CC[C@H](CC[C@@H](C)[C@H]1CC[C@H]2[C@@H]3CC=C4C[C@@H](O)CC[C@]4(C)[C@H]3CC[C@]12C)C(C)C` [BSS, β-Sitosterol, reference compound]?
% Viability ([1]; Cells + PHA + 1.25 µg/mℓ): 89%; % Viability ([1]; Cells + PHA + 2.5 µg/mℓ): 81%; % Viability ([1]; Cells + PHA + 5 µg/mℓ): 92%; % Viability ([1]; Cells + PHA + 10 µg/mℓ): 82%; % INHIBITION OF P24 PROTEIN PRODUCTION (HIV-1; [2]): 0%; % INHIBITION OF P24 PROTEIN PRODUCTION (HIV-1; test concentration 10 µg/mℓ, duration 6 days, listed as LL2): no significant inhibition

What does the source list for `CC[C@H](CC[C@@H](C)[C@H]1CC[C@H]2[C@@H]3CC=C4C[C@@H](OS(=O)(=O)O)CC[C@]4(C)[C@H]3CC[C@]12C)C(C)C` [BSS-SO₄⁻, β-Sitosteryl sulphate, reference compound]?
% INHIBITION OF P24 PROTEIN PRODUCTION (HIV-1; [2]): 0%; % INHIBITION OF P24 PROTEIN PRODUCTION (HIV-1; test concentration 10 µg/mℓ, duration 6 days, listed as LL1): no significant inhibition

Which “% INHIBITION OF P24 PROTEIN PRODUCTION” value (HIV-1; [2]) does the source give for `CC[C@H](CC[C@@H](C)[C@H]1CC[C@H]2[C@@H]3CC=C4C[C@@H](O[C@@H]5O[C@H](CO)[C@@H](O)[C@H](O)[C@H]5O)CC[C@]4(C)[C@H]3CC[C@]12C)C(C)C` [BSSG, β-Sitosteryl β-D-glucoside, reference compound] here?
The value was 0%.

And the “% INHIBITION OF P24 PROTEIN PRODUCTION” value (HIV-1; test concentration 10 µg/mℓ, duration 6 days, listed as LL4)?
The value was “no significant inhibition”.

Which “% INHIBITION OF P24 PROTEIN PRODUCTION” value (HIV-1; [2]) does the source give for `CC(C)CCC[C@@H](C)[C@H]1CC[C@H]2[C@@H]3CC=C4C[C@@H](O)CC[C@]4(C)[C@H]3CC[C@]12C` [CHO, Cholesterol, reference compound] here?
The value was 3%.

What about the “% INHIBITION OF P24 PROTEIN PRODUCTION” value (HIV-1; test concentration 10 µg/mℓ, duration 6 days, listed as LL5) of the same molecule?
Its value is “no significant inhibition”.

Which “% INHIBITION OF P24 PROTEIN PRODUCTION” value (HIV-1; [2]) does the source give for `CC(C)CCC[C@@H](C)[C@H]1CC[C@H]2[C@@H]3CC=C4C[C@@H](OS(=O)(=O)O)CC[C@]4(C)[C@H]3CC[C@]12C` [CHO-SO₄⁻, Cholesteryl sulphate, reference compound] here?
The value was 0%.

And the “% INHIBITION OF P24 PROTEIN PRODUCTION” value (HIV-1; test concentration 10 µg/mℓ, duration 6 days, listed as LL6)?
Its value is “no significant inhibition”.

What does the source list for `CC(C)CCC[C@@H](C)[C@H]1CC[C@H]2[C@@H]3CC=C4C[C@@H](O[C@@H]5O[C@H](COS(=O)(=O)[O-])[C@@H](OS(=O)(=O)[O-])[C@H](OS(=O)(=O)[O-])[C@H]5OS(=O)(=O)[O-])CC[C@]4(C)[C@H]3CC[C@]12C.[Na+].[Na+].[Na+].[Na+]` [CHOG-(SO₄⁻)₄, Cholesteryl β-D-glucoside tetra-sulphate]?
% INHIBITION OF P24 PROTEIN PRODUCTION (HIV-1; test concentration 12.5 µg/mℓ, duration 4 days): 19%; % INHIBITION OF P24 PROTEIN PRODUCTION (HIV-1; test concentration 25 µg/mℓ, duration 4 days): 18%; % INHIBITION OF P24 PROTEIN PRODUCTION (HIV-1; test concentration 50 µg/mℓ, duration 4 days): 49%; % INHIBITION OF P24 PROTEIN PRODUCTION (HIV-1; test concentration 100 µg/mℓ, duration 4 days): 86%

Which results are given for `C[C@@H]1CC[C@@]2(OC1)O[C@H]1C[C@H]3[C@@H]4CC=C5C[C@@H](O[C@@H]6O[C@H](COS(=O)(=O)[O-])[C@@H](OS(=O)(=O)[O-])[C@H](OS(=O)(=O)[O-])[C@H]6OS(=O)(=O)[O-])CC[C@]5(C)[C@H]4CC[C@]3(C)[C@H]1[C@@H]2C.[Na+].[Na+].[Na+].[Na+]` [DG-(SO₄⁻)₄, Diosgenyl β-D-glucoside tetra-sulphate]?
anti-HIV-1 effect (in words) (HIV-1; in terms of P24 protein production, Tables 1-3): marked anti-HIV-1 effects; % INHIBITION OF P24 PROTEIN PRODUCTION (HIV-1; [3]): 60%; % INHIBITION OF P24 PROTEIN PRODUCTION (HIV-1; [4]): 100%

Which results are given for `CCCCCCCCCCCCOS(=O)(=O)[O-].[Na+]` [SODIUM n-DODECYL SULPHATE, reference compound]?
% INHIBITION OF P24 PROTEIN PRODUCTION (HIV-1; [3]): 0%; % INHIBITION OF P24 PROTEIN PRODUCTION (HIV-1; [4]): 45%

`CCCCCCCCO[C@@H]1O[C@H](COS(=O)(=O)O)[C@@H](OS(=O)(=O)O)[C@H](OS(=O)(=O)O)[C@H]1OS(=O)(=O)O` [n-OCTYL GLUCOSIDE TETRA-SULPHATE, reference compound] was tested. Which “% INHIBITION OF P24 PROTEIN PRODUCTION” value (HIV-1; [3]) did it give?
The value was 0%.

And the “% INHIBITION OF P24 PROTEIN PRODUCTION” value (HIV-1; [4])?
Its value is 0%.
